Reference: US11440896B2, “Aminoalkyl compound” (Daiichi Sankyo Company, Limited, priority 2018, dated 2022)

Key:
[1] = Dissolution state in isopropyl myristate (IPM); type: physicochemical; conditions: concentration of 3.84 mmol/L
Protocol: (§1) The compounds described in the Examples were dissolved or suspended in isopropyl myristate (IPM) at a concentration of 3.84 mmol/L and the resultant was used.

[2] = Hairless mouse skin permeation test; type: in vitro ADME; set-up: unit not given here; conditions: hairless mouse (HR-1) skin, horizontal diffusion cell, 37° C., donor 3.84 mmol/L in IPM, N=3
Protocol: as §1
The frozen skin of a hairless mouse (HR-1 strain, male, 7 weeks old, Japan SLC, Inc.) was thawed at room temperature and, if there was excess subcutaneous fat, the fat was excised with scissors. The horizontal diffusion cell was kept at a constant temperature by flowing water from a thermostatic circulation tank (37° C.) into the external jacket of the cell. The hairless mouse skin was punched out to ϕ24 mm and mounted tightly in the horizontal diffusion cell, 0.9 mL of a receiver solution (McIlvaine buffer containing 40% polyethylene glycol 400) was added to the dermal side (receiver side), and 0.9 mL of a donor solution (the solution or suspension of the compound described in the Example in IPM at a concentration of 3.84 mmol/L) was added to the stratum corneum side (donor side). […]
The compounds in liquids collected in the skin permeation test were quantified. […]
Skin permeation rate (flux, mmol/cm2/hr) and Lag time (hr) were calculated from the slope and X-axis intercept, respectively, of the regression line at steady state from the profile, and used as indicators of skin permeation.

[3] = system: mice (C57BL/6JJmsSlc); assay: Analgesic score by Tail Flick test in mice; type: in vivo; conditions: Mus musculus, sc, subcutaneous administration in Captisol, dose with an analgesic score of 50%
Protocol: A Tail Flick analgesic effect metering device (Ugo Basile) and adult mice (C57BL/6JJmsSlc, Japan SLC, Inc.) were used for evaluation. In the Tail Flick test, thermal stimulation was applied to the tail of each animal, and the latency (in seconds) of escape reflection moving the tail was measured. The maximum heat application time was set to 10 seconds in order to prevent burns.
The compounds described in the Examples were dissolved or suspended in Captisol to prepare test samples. Then, test samples at appropriately selected concentrations were administered subcutaneously to the animals (10 mL/kg), and the latency of escape reflection was measured. The latency of escape reflection before test sample administration was set as [pre-dose measurement], and the analgesic score (%) was calculated as [([measurement]−[pre-dose measurement])/(10−[pre-dose measurement])]×100.
The ED50 was determined by calculating a dose with an analgesic score of 50%.

CN(C)C[C@@H]1COCC[C@H]1c1cccc(O)c1 (relative stereo) [Example 1, 3-[(3R*,4R*)-3-(Dimethylaminomethyl)tetrahydropyran-4-yl]phenol]
Dissolution state in IPM [1]: Dissolved

CN(C)C[C@@H]1CCCC[C@H]1c1cccc(O)c1 [Faxeladol]
Flux (skin permeation rate) [2]: 17.14
Dissolution state in IPM [1]: Suspended
ED50 [3]: 2.7 mg/kg

CN(C)C[C@@H]1COCC[C@H]1c1cccc(O)c1 (racemic) [Example 1, 3-[(3R*,4R*)-3-(Dimethylaminomethyl)tetrahydropyran-4-yl]phenol]
Flux (skin permeation rate) [2]: 35.77
ED50 [3]: 1.6 mg/kg
